# Test results: patent US7524853B2 (Solvay Pharmaceuticals B.V., priority 2003, dated 2009)
# Tests used:
# Format in all cases: cell-based
# [1] = biological target: T1, 17β-hydroxysteroid dehydrogenase type 1 (17β-HSD type 1) (Homo sapiens, UniProt P14061); assay: Inhibition of 17β-HSD type 1 in MCF-7 cells stably expressing the isoenzyme (tritium labeled estrone conversion, HPLC); settings: MCF-7 cells expressing 17β-HSD type 1, 2 nM tritium labeled estrone; for % Inhibition HSD1 1 μM / inhibition at 1 µM: 1 μM test compound; for % Inhibition HSD1 10 μM / inhibition at 10 µM: 10 μM test compound; for inhibition at 1 µM / inhibition at 10 µM: MCF7; for inhibition at 1 µM: read-out: % Inhibition HSD1 1 μM; for inhibition at 10 µM: read-out: % Inhibition HSD1 10 μM
# T1 construct: expressed in transfected cells; host or cells: MCF-7
# T1 sequence (P14061 1-328): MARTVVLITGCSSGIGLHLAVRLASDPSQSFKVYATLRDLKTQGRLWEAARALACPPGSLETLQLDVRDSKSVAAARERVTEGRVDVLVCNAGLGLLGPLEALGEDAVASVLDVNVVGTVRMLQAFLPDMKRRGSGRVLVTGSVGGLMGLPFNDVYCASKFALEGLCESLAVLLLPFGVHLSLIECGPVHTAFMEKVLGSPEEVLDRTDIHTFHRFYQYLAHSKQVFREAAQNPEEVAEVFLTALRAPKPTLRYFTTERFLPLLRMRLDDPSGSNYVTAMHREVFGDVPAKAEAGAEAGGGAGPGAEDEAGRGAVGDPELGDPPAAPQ
# Procedure, shortened: (§1)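 Each isoenzyme was stably expressed in its own MCF-7 line, and cells were incubated in growth medium with test compound and 2 nM tritiated substrate: estrone (type 1), estradiol (type 2), androstenedione (type 3). Medium was sampled after a fixed time, TCA-stopped, and analysed by HPLC-flow scintillation; inhibition versus compound-free control, two compound concentrations.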
# [2] = biological target: T2, 17β-hydroxysteroid dehydrogenase type 2 (17β-HSD type 2) (Homo sapiens, UniProt P37059); assay: Inhibition of 17β-HSD type 2 in MCF-7 cells stably expressing the isoenzyme (tritium labeled estradiol conversion, HPLC); settings: MCF-7 cells expressing 17β-HSD type 2, 2 nM tritium labeled estradiol; for % Inhibition HSD2 1 μM / inhibition at 1 µM: 1 μM test compound; for % Inhibition HSD2 10 μM / inhibition at 10 µM: 10 μM test compound; for inhibition at 1 µM / inhibition at 10 µM: MCF7; for inhibition at 1 µM: read-out: % Inhibition HSD2 1 μM; for inhibition at 10 µM: read-out: % Inhibition HSD2 10 μM
# T2 construct: expressed in transfected cells; host or cells: MCF-7
# T2 sequence (P37059 1-387): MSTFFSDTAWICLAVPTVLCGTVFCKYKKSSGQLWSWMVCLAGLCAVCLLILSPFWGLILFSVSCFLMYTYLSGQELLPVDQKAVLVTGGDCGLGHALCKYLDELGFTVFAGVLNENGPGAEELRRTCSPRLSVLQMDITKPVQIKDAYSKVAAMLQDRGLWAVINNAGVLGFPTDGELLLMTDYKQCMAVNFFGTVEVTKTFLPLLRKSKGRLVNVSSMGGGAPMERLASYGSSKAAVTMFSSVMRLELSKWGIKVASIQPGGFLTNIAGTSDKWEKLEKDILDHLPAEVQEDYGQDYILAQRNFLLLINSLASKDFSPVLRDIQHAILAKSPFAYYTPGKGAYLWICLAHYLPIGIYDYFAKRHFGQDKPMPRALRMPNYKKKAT
# Procedure, shortened: as §1
# [3] = biological target: T3, 17β-hydroxysteroid dehydrogenase type 3 (17β-HSD type 3) (Homo sapiens, UniProt P37058); assay: Inhibition of 17β-HSD type 3 in MCF-7 cells stably expressing the isoenzyme (tritium labeled androstenedione conversion, HPLC); settings: MCF-7 cells expressing 17β-HSD type 3, 2 nM tritium labeled androstenedione; for % Inhibition HSD3 1 μM / inhibition at 1 µM: 1 μM test compound; for % Inhibition HSD3 10 μM / inhibition at 10 µM: 10 μM test compound; for inhibition at 1 µM / inhibition at 10 µM: MCF7; for inhibition at 1 µM: read-out: % Inhibition HSD3 1 μM; for inhibition at 10 µM: read-out: % Inhibition HSD3 10 μM
# T3 construct: expressed in transfected cells; host or cells: MCF-7
# T3 sequence (P37058 1-310): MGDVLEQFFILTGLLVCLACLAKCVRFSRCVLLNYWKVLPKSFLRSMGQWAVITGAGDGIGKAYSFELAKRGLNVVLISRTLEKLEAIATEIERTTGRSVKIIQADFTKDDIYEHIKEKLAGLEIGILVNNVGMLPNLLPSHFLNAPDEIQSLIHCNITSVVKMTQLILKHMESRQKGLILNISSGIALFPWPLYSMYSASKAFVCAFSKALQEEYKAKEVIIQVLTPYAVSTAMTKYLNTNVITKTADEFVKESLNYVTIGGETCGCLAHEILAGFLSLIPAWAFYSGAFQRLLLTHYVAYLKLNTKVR
# Procedure, shortened: as §1
SMILES,% Inhibition HSD1 1 μM [1] [%],% Inhibition HSD1 10 μM [1] [%],% Inhibition HSD2 1 μM [2] [%],% Inhibition HSD2 10 μM [2] [%],% Inhibition HSD3 1 μM [3] [%],% Inhibition HSD3 10 μM [3] [%],inhibition at 1 µM [1] [%],inhibition at 10 µM [1] [%],inhibition at 1 µM [2] [%],inhibition at 10 µM [2] [%],inhibition at 1 µM [3] [%],inhibition at 10 µM [3] [%]
CCCCC(CC)c1nc2sc3c(O)cccc3c2c(=O)n1CCCC (stereo not drawn) [No. 635],4.9,18.9,15.4,50.8,11.6,62.5,–,–,–,–,–,–
"CCOC(=O)C1=Cc2sc3nc(-c4ccc(OC)cc4)n(Cc4ccccc4)c(=O)c3c2CC1 [No. 15, 3-Benzyl-2-(p-methoxyphenyl)-4-oxo-3,4,5,6-tetrahydro-benzo[4,5]thieno[2,3-d]pyrimidine-7-carboxylic acid ethyl ester]",–,–,–,–,–,–,-9.9,-6.5,-5.5,7.3,18.5,61.2
"COc1cc(-c2nc3sc4c(Oc5ccccc5)c(C=O)ccc4c3c(=O)n2Cc2ccccc2)cc(OC)c1OC [No. 5, 3-Benzyl-4-oxo-8-phenoxy-2-(3,4,5-trimethoxyphenyl)-3,4-dihydro-benzo[4,5]thieno[2,3-d]pyrimidine-7-carbaldehyde]",–,–,–,–,–,–,-1,26.1,-0.9,17,9.4,9.1
"COc1ccc(-c2nc3sc4c(c3c(=O)n2Cc2ccccc2)CCC(Br)(Br)C4=O)cc1 [No. 147, 3-Benzyl-7,7-dibromo-2-p-methoxyphenyl-6,7-dihydro-3H,5H-benzo[4,5]thieno[2,3-d]pyrimidine-4,8-dione]",–,–,–,–,–,–,11.4,12.5,0.1,17.2,10.3,9.1
"COc1cc(-c2nc3sc4c(c3c(=O)n2CC(C)C)CCCC4=O)cc(OC)c1OC [No. 114, 3-Isobutyl-2-(3,4,5-trimethoxyphenyl)-6,7-dihydro-3H,5H-benzo[4,5]thieno[2,3-d]pyrimidine-4,8-dione]",–,–,–,–,–,–,15.5,55.9,15.5,25.3,2.4,32
"CCCCn1c(-c2cc(OC)c(OC)c(O)c2Br)nc2sc3c(O)c(Br)c(C)cc3c2c1=O [No. 699, 7-Bromo-2-(2-bromo-3-hydroxy4,5-dimethoxyphenyl)-3-butyl-8-hydroxy-6-methyl-3H-benzo[4,5]thieno[2,3-d]pyrimidin-4-one]",–,–,–,–,–,–,5.9,7.3,16.1,19.6,7.4,8.5
O=c1c2c(nc(CCc3ccccc3)n1CCc1cccs1)sc1c(O)cccc12 [No. 639],22.6,39.3,18.2,24.0,33.6,76.2,–,–,–,–,–,–
CCSC1=C(CO)CCc2c1sc1nc(-c3ccc(OC)cc3)n(Cc3ccccc3)c(=O)c21 [No. 19],–,–,–,–,–,–,10.2,32,4.9,21.1,32.7,100
"COCCn1c(-c2cc(OC)c(OC)c(OC)c2)nc2sc3c(c2c1=O)CCCC3=O [No. 109, 3-(2-Methoxyethyl)-2-(3,4,5-trimethoxyphenyl)-6,7-dihydro-3H,5H-benzo[4,5]thieno[2,3-d]pyrimidine-4,8-dione]",–,–,–,–,–,–,-0.2,20.7,6,9.7,0.6,11.6
"COc1cc(-c2nc3sc4c(c3c(=O)n2Cc2ccccc2)CCCC4)cc(OC)c1OC [No. 1, 3-benzyl-2-(3,4,5-trimethoxyphenyl)-5,6,7,8-tetrahydro-3H-benzo[4,5]thieno[2,3-d]pyrimidin-4-one]",–,–,–,–,–,–,0.8,21.1,7.3,17.4,-8.8,6.3
COCc1nc2sc3c(O)cccc3c2c(=O)n1CCc1cccs1 [No. 645],17.2,29.1,48.8,75.5,21.7,22.7,–,–,–,–,–,–
CCCCn1c(CCC2CCCC2)nc2sc3c(O)cccc3c2c1=O [No. 634],16.8,17.9,16.8,20.1,13.3,56.4,–,–,–,–,–,–
"COc1cc(-c2nc3sc4c(c3c(=O)n2Cc2ccccc2)CCC(Br)(Br)C4=O)c(Br)c(OC)c1OC [No. 48, 3-benzyl-7,7-dibromo-2-(2-bromo-3,4,5-trimethoxyphenyl)-6,7-dihydro-3H,5H-benzo[4,5]thieno[2,3-d]pyrimidine-4,8-dione]",–,–,–,–,–,–,27.4,36.5,0.8,25.6,33.7,23.4
"COc1cc(-c2nc3sc4c(O)cccc4c3c(=O)n2CC2CCCO2)c(Cl)c(OC)c1OC (stereo not drawn) [No. 140, 2-(2-Chloro-3,4,5-trimethoxyphenyl)-8-hydroxy-3-(tetrahydrofuran-2-ylmethyl)-3H-benzo[4,5]thieno[2,3-d]pyrimidin-4-one]",–,–,–,–,–,–,39.5,81,10.3,36.8,8.8,63.5
CCCc1nc2sc3c(OC(C)=O)cccc3c2c(=O)n1Cc1cc(Br)ccc1OC [No. 99],–,–,–,–,–,–,21.8,64.5,46.1,85.4,15.9,68.9
"COc1cc(-c2nc3sc4c(c3c(=O)n2CC2CCCO2)CCC(Br)C4=O)c(Br)c(OC)c1OC (stereo not drawn) [No. 132, 7-Bromo-2-(2-bromo-3,4,5-trimethoxyphenyl)-3-(tetrahydrofuran-2-ylmethyl)-6,7-dihydro-3H,5H-benzo[4,5]thieno[2,3-d]pyrimidine-4,8-dione]",–,–,–,–,–,–,23.8,53.9,22.8,16.9,16.9,24.9
"O=C(OCCn1c(-c2cccs2)nc2sc3c(c2c1=O)CCC(Br)C3=O)c1cccs1 (stereo not drawn) [No. 71, Thiophene-2-carboxylic acid 2-(7-bromo-4,8-dioxo-2-thiohen-2-yl-5,6,7,8-tetrahydro-4H-benzo[4,5]thieno[2,3-d]pyrimidin-3-yl)-ethyl ester]",–,–,–,–,–,–,20.7,20.8,28.9,24.5,21.9,36
